Results as given in ChEMBL document CHEMBL4725318, “New vinyl-1,2,4-triazole derivatives as antimicrobial agents: Synthesis, biological evaluation and molecular docking studies” (2020).
≈ marks a conversion by molar mass, not a printed value.

Assays:
Format in all cases: functional
Erwinia amylovora [1] = test: Antibacterial activity against Erwinia amylovora by microdilution method
[2] = tested on: Pectobacterium carotovorum; test: Antibacterial activity against Erwinia carotovora by microdilution method
Xanthomonas campestris [3] = test: Antibacterial activity against Xanthomonas campestris by microdilution method
Bacillus subtilis [4] = test: Antibacterial activity against Bacillus subtilis by microdilution method
Pseudomonas fluorescens [5] = test: Bactericidal activity against Pseudomonas fluorescens
[6] = tested on: Pectobacterium carotovorum; test: Bactericidal activity against Erwinia carotovora
Bacillus subtilis [7] = test: Bactericidal activity against Bacillus subtilis
Erwinia amylovora [8] = test: Bactericidal activity against Erwinia amylovora
Pseudomonas fluorescens [9] = test: Antibacterial activity against Pseudomonas fluorescens by microdilution method
Xanthomonas campestris [10] = test: Bactericidal activity against Xanthomonas campestris
Aspergillus niger [11] = test: Fungicidal activity Aspergillus niger
Aspergillus versicolor [12] = test: Fungicidal activity Aspergillus versicolor
Talaromyces funiculosus [13] = test: Fungicidal activity Penicillium funiculosum
Aspergillus fumigatus [14] = test: Antifungal activity Aspergillus fumigatus by microdilution method
Trichoderma viride [15] = test: Antifungal activity Trichoderma viride by microdilution method
Penicillium cyclopium [16] = test: Fungicidal activity Penicillium verrucosum var. cyclopium
Aspergillus fumigatus [17] = test: Fungicidal activity Aspergillus fumigatus
Aspergillus ochraceus [18] = test: Antifungal activity Aspergillus ochraceus by microdilution method
Talaromyces funiculosus [19] = test: Antifungal activity Penicillium funiculosum by microdilution method
Aspergillus niger [20] = test: Antifungal activity Aspergillus niger by microdilution method
Aspergillus versicolor [21] = test: Antifungal activity Aspergillus versicolor by microdilution method
Aspergillus ochraceus [22] = test: Fungicidal activity Aspergillus ochraceus
Penicillium ochrochloron [23] = test: Fungicidal activity Penicillium ochrochloron
Penicillium cyclopium [24] = test: Antifungal activity Penicillium verrucosum var. cyclopium by microdilution method
Penicillium ochrochloron [25] = test: Antifungal activity Penicillium ochrochloron by microdilution method
Trichoderma viride [26] = test: Fungicidal activity Trichoderma viride

Compound	MIC (Erwinia amylovora [1]) [µM]	MIC [2] [µM]	MIC (Xanthomonas campestris [3]) [µM]	MIC (Bacillus subtilis [4]) [µM]	MBC (Pseudomonas fluorescens [5]) [µM]	MBC [6] [µM]	MBC (Bacillus subtilis [7]) [µM]	MBC (Erwinia amylovora [8]) [µM]	MIC (Pseudomonas fluorescens [9]) [µM]	MBC (Xanthomonas campestris [10]) [µM]	MFC (Aspergillus niger [11]) [µM]	MFC (Aspergillus versicolor [12]) [µM]	MFC (Talaromyces funiculosus [13]) [µM]	MIC (Aspergillus fumigatus [14]) [µM]	MIC (Trichoderma viride [15]) [µM]	MFC (Penicillium cyclopium [16]) [µM]	MFC (Aspergillus fumigatus [17]) [µM]	MIC (Aspergillus ochraceus [18]) [µM]	MIC (Talaromyces funiculosus [19]) [µM]	MIC (Aspergillus niger [20]) [µM]	also measured
O=C(N[C@H](CO)[C@H](O)c1ccc([N+](=O)[O-])cc1)C(Cl)Cl [CHLORAMPHENICOL]	0.15 (≈ 0.0485 µg/mL)	0.25 (≈ 0.0808 µg/mL)	0.1 (≈ 0.0323 µg/mL)	0.3 (≈ 0.0969 µg/mL)	0.5 (≈ 0.162 µg/mL)	0.5 (≈ 0.162 µg/mL)	0.3 (≈ 0.0969 µg/mL)	0.3 (≈ 0.0969 µg/mL)	0.5 (≈ 0.162 µg/mL)	0.1 (≈ 0.0323 µg/mL)	–	–	–	–	–	–	–	–	–	–	–
CN(C)c1ccc(/C=C(/C(=O)c2ccc3ccccc3c2)n2cncn2)cc1	2.7 (≈ 0.995 µg/mL)	2.7 (≈ 0.995 µg/mL)	2.7 (≈ 0.995 µg/mL)	5.4 (≈ 1.99 µg/mL)	2.7 (≈ 0.995 µg/mL)	2.7 (≈ 0.995 µg/mL)	5.4 (≈ 1.99 µg/mL)	5.4 (≈ 1.99 µg/mL)	2.7 (≈ 0.995 µg/mL)	5.4 (≈ 1.99 µg/mL)	270 (≈ 99.5 µg/mL)	270 (≈ 99.5 µg/mL)	270 (≈ 99.5 µg/mL)	140 (≈ 51.6 µg/mL)	70 (≈ 25.8 µg/mL)	270 (≈ 99.5 µg/mL)	270 (≈ 99.5 µg/mL)	70 (≈ 25.8 µg/mL)	190 (≈ 70 µg/mL)	140 (≈ 51.6 µg/mL)	MIC (Aspergillus versicolor [21]): 140 µM (≈ 51.6 µg/mL); MFC (Aspergillus ochraceus [22]): 140 µM (≈ 51.6 µg/mL); MFC (Penicillium ochrochloron [23]): 270 µM (≈ 99.5 µg/mL); MIC (Penicillium cyclopium [24]): 140 µM (≈ 51.6 µg/mL); MIC (Penicillium ochrochloron [25]): 140 µM (≈ 51.6 µg/mL); MFC (Trichoderma viride [26]): 140 µM (≈ 51.6 µg/mL)
O=C(/C(=C/c1ccc([N+](=O)[O-])cc1)n1cncn1)c1ccc(Cl)cc1	1.3 (≈ 0.461 µg/mL)	1.3 (≈ 0.461 µg/mL)	1.3 (≈ 0.461 µg/mL)	1.3 (≈ 0.461 µg/mL)	1.3 (≈ 0.461 µg/mL)	1.3 (≈ 0.461 µg/mL)	1.3 (≈ 0.461 µg/mL)	1.3 (≈ 0.461 µg/mL)	0.6 (≈ 0.213 µg/mL)	1.3 (≈ 0.461 µg/mL)	190 (≈ 67.4 µg/mL)	190 (≈ 67.4 µg/mL)	190 (≈ 67.4 µg/mL)	100 (≈ 35.5 µg/mL)	70 (≈ 24.8 µg/mL)	190 (≈ 67.4 µg/mL)	190 (≈ 67.4 µg/mL)	70 (≈ 24.8 µg/mL)	140 (≈ 49.7 µg/mL)	140 (≈ 49.7 µg/mL)	MIC (Aspergillus versicolor [21]): 100 µM (≈ 35.5 µg/mL); MFC (Aspergillus ochraceus [22]): 100 µM (≈ 35.5 µg/mL); MFC (Penicillium ochrochloron [23]): 190 µM (≈ 67.4 µg/mL); MIC (Penicillium cyclopium [24]): 140 µM (≈ 49.7 µg/mL); MIC (Penicillium ochrochloron [25]): 100 µM (≈ 35.5 µg/mL); MFC (Trichoderma viride [26]): 100 µM (≈ 35.5 µg/mL)
CC(C)(C)c1cc(/C=C(/C(=O)c2ccc(Cl)cc2Cl)n2cncn2)cc(C(C)(C)C)c1O	17 (≈ 8.03 µg/mL)	4.5 (≈ 2.13 µg/mL)	17 (≈ 8.03 µg/mL)	17 (≈ 8.03 µg/mL)	9 (≈ 4.25 µg/mL)	9 (≈ 4.25 µg/mL)	17 (≈ 8.03 µg/mL)	17 (≈ 8.03 µg/mL)	9 (≈ 4.25 µg/mL)	17 (≈ 8.03 µg/mL)	160 (≈ 75.6 µg/mL)	160 (≈ 75.6 µg/mL)	160 (≈ 75.6 µg/mL)	80 (≈ 37.8 µg/mL)	30 (≈ 14.2 µg/mL)	320 (≈ 151 µg/mL)	160 (≈ 75.6 µg/mL)	60 (≈ 28.3 µg/mL)	120 (≈ 56.7 µg/mL)	80 (≈ 37.8 µg/mL)	MIC (Aspergillus versicolor [21]): 80 µM (≈ 37.8 µg/mL); MFC (Aspergillus ochraceus [22]): 160 µM (≈ 75.6 µg/mL); MFC (Penicillium ochrochloron [23]): 160 µM (≈ 75.6 µg/mL); MIC (Penicillium cyclopium [24]): 160 µM (≈ 75.6 µg/mL); MIC (Penicillium ochrochloron [25]): 80 µM (≈ 37.8 µg/mL); MFC (Trichoderma viride [26]): 80 µM (≈ 37.8 µg/mL)
c1ccc(-c2ccc(C(c3ccccc3)n3ccnc3)cc2)cc1 (stereo not drawn) [BIFONAZOLE]	–	–	–	–	–	–	–	–	–	–	640 (≈ 199 µg/mL)	640 (≈ 199 µg/mL)	810 (≈ 251 µg/mL)	480 (≈ 149 µg/mL)	480 (≈ 149 µg/mL)	640 (≈ 199 µg/mL)	640 (≈ 199 µg/mL)	480 (≈ 149 µg/mL)	640 (≈ 199 µg/mL)	480 (≈ 149 µg/mL)	MIC (Aspergillus versicolor [21]): 320 µM (≈ 99.3 µg/mL); MFC (Aspergillus ochraceus [22]): 640 µM (≈ 199 µg/mL); MFC (Penicillium ochrochloron [23]): 810 µM (≈ 251 µg/mL); MIC (Penicillium cyclopium [24]): 320 µM (≈ 99.3 µg/mL); MIC (Penicillium ochrochloron [25]): 640 µM (≈ 199 µg/mL); MFC (Trichoderma viride [26]): 640 µM (≈ 199 µg/mL)
CC1(C)S[C@@H]2[C@H](NC(=O)[C@H](N)c3ccccc3)C(=O)N2[C@H]1C(=O)O [AMPICILLIN]	0.25 (≈ 0.0874 µg/mL)	0.1 (≈ 0.0349 µg/mL)	0.2 (≈ 0.0699 µg/mL)	0.2 (≈ 0.0699 µg/mL)	8.6 (≈ 3 µg/mL)	0.2 (≈ 0.0699 µg/mL)	0.2 (≈ 0.0699 µg/mL)	0.5 (≈ 0.175 µg/mL)	8.6 (≈ 3 µg/mL)	0.2 (≈ 0.0699 µg/mL)	–	–	–	–	–	–	–	–	–	–	–
O=C(/C(=C/c1cc([N+](=O)[O-])ccc1O)n1cncn1)c1ccc(Cl)cc1	2.7 (≈ 1 µg/mL)	2.7 (≈ 1 µg/mL)	1.3 (≈ 0.482 µg/mL)	2.7 (≈ 1 µg/mL)	2.7 (≈ 1 µg/mL)	2.7 (≈ 1 µg/mL)	2.7 (≈ 1 µg/mL)	2.7 (≈ 1 µg/mL)	1.3 (≈ 0.482 µg/mL)	2.7 (≈ 1 µg/mL)	200 (≈ 74.2 µg/mL)	200 (≈ 74.2 µg/mL)	200 (≈ 74.2 µg/mL)	200 (≈ 74.2 µg/mL)	100 (≈ 37.1 µg/mL)	410 (≈ 152 µg/mL)	410 (≈ 152 µg/mL)	100 (≈ 37.1 µg/mL)	150 (≈ 55.6 µg/mL)	150 (≈ 55.6 µg/mL)	MIC (Aspergillus versicolor [21]): 100 µM (≈ 37.1 µg/mL); MFC (Aspergillus ochraceus [22]): 200 µM (≈ 74.2 µg/mL); MFC (Penicillium ochrochloron [23]): 200 µM (≈ 74.2 µg/mL); MIC (Penicillium cyclopium [24]): 200 µM (≈ 74.2 µg/mL); MIC (Penicillium ochrochloron [25]): 100 µM (≈ 37.1 µg/mL); MFC (Trichoderma viride [26]): 200 µM (≈ 74.2 µg/mL)
CC(C)CC(=O)/C(=C/c1ccc([N+](=O)[O-])cc1)n1cncn1	0.4 (≈ 0.12 µg/mL)	0.4 (≈ 0.12 µg/mL)	0.8 (≈ 0.24 µg/mL)	0.8 (≈ 0.24 µg/mL)	3.3 (≈ 0.991 µg/mL)	0.8 (≈ 0.24 µg/mL)	0.8 (≈ 0.24 µg/mL)	0.8 (≈ 0.24 µg/mL)	3.3 (≈ 0.991 µg/mL)	0.8 (≈ 0.24 µg/mL)	30 (≈ 9.01 µg/mL)	60 (≈ 18 µg/mL)	60 (≈ 18 µg/mL)	20 (≈ 6.01 µg/mL)	30 (≈ 9.01 µg/mL)	60 (≈ 18 µg/mL)	30 (≈ 9.01 µg/mL)	20 (≈ 6.01 µg/mL)	40 (≈ 12 µg/mL)	20 (≈ 6.01 µg/mL)	MIC (Aspergillus versicolor [21]): 40 µM (≈ 12 µg/mL); MFC (Aspergillus ochraceus [22]): 30 µM (≈ 9.01 µg/mL); MFC (Penicillium ochrochloron [23]): 60 µM (≈ 18 µg/mL); MIC (Penicillium cyclopium [24]): 40 µM (≈ 12 µg/mL); MIC (Penicillium ochrochloron [25]): 30 µM (≈ 9.01 µg/mL); MFC (Trichoderma viride [26]): 60 µM (≈ 18 µg/mL)
O=C(/C(=C/c1cccc(O)c1)n1cncn1)c1ccccc1	1.7 (≈ 0.495 µg/mL)	1.7 (≈ 0.495 µg/mL)	1.7 (≈ 0.495 µg/mL)	6.9 (≈ 2.01 µg/mL)	1.7 (≈ 0.495 µg/mL)	1.7 (≈ 0.495 µg/mL)	6.9 (≈ 2.01 µg/mL)	3.4 (≈ 0.99 µg/mL)	1.7 (≈ 0.495 µg/mL)	3.4 (≈ 0.99 µg/mL)	100 (≈ 29.1 µg/mL)	520 (≈ 151 µg/mL)	520 (≈ 151 µg/mL)	380 (≈ 111 µg/mL)	190 (≈ 55.3 µg/mL)	520 (≈ 151 µg/mL)	520 (≈ 151 µg/mL)	190 (≈ 55.3 µg/mL)	260 (≈ 75.7 µg/mL)	520 (≈ 151 µg/mL)	MIC (Aspergillus versicolor [21]): 260 µM (≈ 75.7 µg/mL); MFC (Aspergillus ochraceus [22]): 520 µM (≈ 151 µg/mL); MFC (Penicillium ochrochloron [23]): 520 µM (≈ 151 µg/mL); MIC (Penicillium cyclopium [24]): 380 µM (≈ 111 µg/mL); MIC (Penicillium ochrochloron [25]): 260 µM (≈ 75.7 µg/mL); MFC (Trichoderma viride [26]): 260 µM (≈ 75.7 µg/mL)
CC(=O)N1CCN(c2ccc(OCC3COC(Cn4ccnc4)(c4ccc(Cl)cc4Cl)O3)cc2)CC1 (stereo not drawn) [KETOCONAZOLE]	–	–	–	–	–	–	–	–	–	–	940 (≈ 500 µg/mL)	940 (≈ 500 µg/mL)	940 (≈ 500 µg/mL)	380 (≈ 202 µg/mL)	1880 (≈ 999 µg/mL)	570 (≈ 303 µg/mL)	940 (≈ 500 µg/mL)	280 (≈ 149 µg/mL)	380 (≈ 202 µg/mL)	380 (≈ 202 µg/mL)	MIC (Aspergillus versicolor [21]): 380 µM (≈ 202 µg/mL); MFC (Aspergillus ochraceus [22]): 380 µM (≈ 202 µg/mL); MFC (Penicillium ochrochloron [23]): 2820 µM (≈ 1500 µg/mL); MIC (Penicillium cyclopium [24]): 380 µM (≈ 202 µg/mL); MIC (Penicillium ochrochloron [25]): 1880 µM (≈ 999 µg/mL); MFC (Trichoderma viride [26]): 2820 µM (≈ 1500 µg/mL)
